The test relates to production of cAMP under stimulation by TSAb. As to the kind of experiment: Test Example 2: cAMP produced under stimulation by TSAb in FRTL5 cells (96-well). It counts as cell-based, rat. The note with it: TSAb positive IgG. As for the experimental part: Using rat established thyroid cell line FRTL5, the influence of the peptide over the production of cAMP under stimulation by TSAb, was examined in accordance with the method of S. Kosugi et al. (Endocrinology, Vol. 125, No. 1, p 410 (1989)). The method will be described as follows.
Preincubated FRTL5 cells (1.5×10^5 cells/ml) were transferred to a multiplate having 96 wells in an amount of 100 μl per well and incubated in a CO2 incubator for 6 days while changing the medium (having TSH excluded). Then, the medium was removed and the cells were rinsed and subjected to the test. 40 μl of a solution of IgG from TSAb positive serum and 10 μl of a solution containing 0, 15 or 30 μg of the desired peptide were reacted in a test tube at 4° C. for 20 hours. To this reaction solution, 5 μl of a 0.5 mM solution of 3-isobutyl-1-methylxanthine was added, and 50 μl of this reaction solution was added to the previously prepared FRTL5 cells, followed by incubation at 37° C. for two hours.
On the other hand, as control, a test was conducted in the same manner using a normal serum.
With respect to each sample, the quantitative analysis of cAMP produced under stimulation by TSAb was conducted by means of a commercially available cAMP-radioimmunoassay kit (1-VQ12, manufactured by Eiken Kagaku Corporation).

No end group written: not given here.

In turn, EQEDEIIGFG [Peptide No. 8] yielded an Inhibition rate (15 μg/well peptide) of 54% and an Inhibition rate (30 μg/well peptide) of 76%. For the same sequence, the cAMP runs as follows: (15 μg/well peptide) 3.2 nM; (30 μg/well peptide) 1.8 nM.

The values are drawn from patent US5446129A, “Peptide or its salt for autoimmune hyperthyroidism containing it” (Ishihara Sangyo Kaisha Ltd., priority 1990, dated 1995).
